According to patent US20260124324A1, “PHOTOCLICK CHEMISTRY OF SILK FOR TEMPORARY UV TATTOOS” (Trustees of Tufts College, priority 2023, published 2026):

How the values were obtained:
[1] = test system: human dermal fibroblasts (hDFs); assay: Fluorescence microscopy of tattooed 3D skin-simulating scaffolds; format: cell-based; settings: 7 days after tattooing, phalloidin and DAPI staining
Experimental: Cell-laden 3D scaffolds were fixed in a 2% formalin solution in PBS for 2 hours with gentle oscillatory mixing. All subsequent washing steps were performed for 30 minutes with oscillatory mixing with the indicated solution. The formalin solution was then decanted, and the scaffolds were washed 3 times with DI water. The cell membranes were permeabilized by washing the scaffolds with acetone solution (50% v/v acetone in 1×PBS) for 30 minutes. The samples were then washed 3 times with PBS-T (1×PBS, […]), then blocked with 1 mg/mL BSA in PBS-T (1×PBS, 0.1% Triton X-100). Actin was stained with phalloidin-488 (Invitrogen A12379) for 1 hour, then washed 3 times with 1×PBS. Nuclei were stained with DAPI (Invitrogen D3571) for 30 minutes then washed with PBS 3 times. Scaffolds were stored in 1×PBS at 4 C until imaged.
Fixed and stained samples as well as tattooed imaging phantoms were imaged with a Keyence BZ-X710 all-in-one fluorescence microscope. The DAPI filter channel (ex/em 355/450) was used to image both the DAPI stain, fluorescent pyrazoline-laden microparticles, and aqueous SilMA-pyrazoline tattoo inks. The GFP channel (ex/em 488/510) was used to image the phalloidin-stained actin.
Silk fibroin solution (5% w/w) was pipetted into a 24 well plate (1.5 mL per well) and frozen at −20 C. […]

[2] = test system: human dermal fibroblasts (hDFs); assay: 2D metabolic toxicity assay (MTT); settings: positive control, 1% in media, 24 hours
[3] = test system: human dermal fibroblasts (hDFs); assay: 2D cell morphology by bright field transmission microscopy; format: cell-based; settings: positive control, 1% in media, 24 hour incubation
Text: Images were taken with a Motic AE2000 inverted microscope in bright field transmission through the bottom of transparent 96 well plates. Images from 2D cell culture were processed in GNU Image Manipulation Program V 2.10.12. Contrast was enhanced by changing light and dark levels to maximize the dynamic range of the image. The illumination artifacts were removed by creating a duplicate image on a separate layer and blurring it with a Gaussian blur strength 12.0. This layer was placed below the normal layer, and the two layers were mixed in the “Grain Extract” mixing mode. This process inverts the colors, so the color was inverted again to restore the original orientation.
Cellular morphology is an independent method of assessing cellular health. When healthy, cells like hDFs will adhere to flat plates in 2D culture and multiply rapidly, until they form a confluent layer. The pressure from surrounding cells tends to cause the cells to adopt an elongated and tubular morphology, often aligned with their neighboring cells. When cells are damaged, they will often suffer cytoskeletal damage and will lose their elongated morphology. Dead HDFs will be at the extreme end of this trend, appearing as very small spheres, devoid of cytoskeleton entirely.

Which “cell morphology / localized cytotoxicity in 3D scaffold” value [1] does the source give for Triton X-100 here?
Its value is “only background fluorescence”.

What about the “metabolic capacity (MTT)” value [2] of the same substance?
Its value is “completely destroyed the metabolic capacity of the cells”.

And the cellular morphology [3]?
The cellular morphology was “small hard spheres indicative of dead cells”.
